Measurements taken from ChEMBL document CHEMBL1909046, “DrugMatrix in vitro pharmacology data”.

Legend:
[1] = target: T1, 5-hydroxytryptamine receptor 2C (Homo sapiens, UniProt P28335); experiment: DRUGMATRIX: Serotonin (5-Hydroxytryptamine) 5-HT2C radioligand binding (ligand: [3H] Mesulergine); format: cell membranes, CHO-K1, Membrane; conditions: cho-k1; Not Active = under 50% inhibition at 10 µM
T1 sequence (P28335 whole entry): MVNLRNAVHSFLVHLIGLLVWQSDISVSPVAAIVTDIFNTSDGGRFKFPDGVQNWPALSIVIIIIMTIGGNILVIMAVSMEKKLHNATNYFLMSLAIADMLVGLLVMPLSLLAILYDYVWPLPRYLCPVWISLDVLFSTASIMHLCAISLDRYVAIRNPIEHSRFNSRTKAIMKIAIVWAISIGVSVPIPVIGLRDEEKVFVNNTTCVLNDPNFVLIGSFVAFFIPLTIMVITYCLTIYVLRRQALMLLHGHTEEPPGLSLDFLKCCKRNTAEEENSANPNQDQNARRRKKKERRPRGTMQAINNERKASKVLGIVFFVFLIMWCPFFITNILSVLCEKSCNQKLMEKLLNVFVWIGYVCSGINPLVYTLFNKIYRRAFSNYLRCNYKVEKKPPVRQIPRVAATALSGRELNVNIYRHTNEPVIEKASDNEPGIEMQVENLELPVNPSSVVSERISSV

[2] = target: Cytochrome P450 2D6 (Homo sapiens, UniProt P10635); conditions: bti-tn-5b1-4; further: in other assays of this panel Not Active means under 50% inhibition at 10 µM
Chain of Cytochrome P450 2D6 (P10635 whole entry): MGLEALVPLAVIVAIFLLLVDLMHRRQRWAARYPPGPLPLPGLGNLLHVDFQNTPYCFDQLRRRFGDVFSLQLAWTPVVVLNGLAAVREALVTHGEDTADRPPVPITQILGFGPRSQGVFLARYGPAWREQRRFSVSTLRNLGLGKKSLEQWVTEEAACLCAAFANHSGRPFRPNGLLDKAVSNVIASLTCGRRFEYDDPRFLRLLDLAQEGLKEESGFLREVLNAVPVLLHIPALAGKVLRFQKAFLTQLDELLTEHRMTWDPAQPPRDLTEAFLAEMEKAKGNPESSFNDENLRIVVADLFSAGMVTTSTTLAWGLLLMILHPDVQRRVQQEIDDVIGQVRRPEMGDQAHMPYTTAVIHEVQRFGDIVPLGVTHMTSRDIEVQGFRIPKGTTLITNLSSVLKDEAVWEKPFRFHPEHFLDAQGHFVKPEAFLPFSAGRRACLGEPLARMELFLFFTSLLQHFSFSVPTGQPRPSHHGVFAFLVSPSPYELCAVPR

[3] = target: Cytochrome P450 2C9 (Homo sapiens, UniProt P11712); conditions: bti-tn-5b1-4; further: in other assays of this panel Not Active means under 50% inhibition at 10 µM
Chain of Cytochrome P450 2C9 (P11712 whole entry): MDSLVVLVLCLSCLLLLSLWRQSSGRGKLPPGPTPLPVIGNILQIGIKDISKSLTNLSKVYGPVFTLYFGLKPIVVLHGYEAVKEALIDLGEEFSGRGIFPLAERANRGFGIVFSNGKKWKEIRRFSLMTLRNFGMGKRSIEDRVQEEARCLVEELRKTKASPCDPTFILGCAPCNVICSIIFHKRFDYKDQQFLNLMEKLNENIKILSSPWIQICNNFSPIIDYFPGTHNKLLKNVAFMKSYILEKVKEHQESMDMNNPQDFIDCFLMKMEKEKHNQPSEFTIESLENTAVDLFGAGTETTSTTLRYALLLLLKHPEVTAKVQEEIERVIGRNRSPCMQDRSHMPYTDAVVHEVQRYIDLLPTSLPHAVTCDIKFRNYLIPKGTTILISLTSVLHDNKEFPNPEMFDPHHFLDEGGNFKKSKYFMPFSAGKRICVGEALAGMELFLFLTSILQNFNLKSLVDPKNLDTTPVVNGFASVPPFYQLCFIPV

[4] = target: Cytochrome P450 3A4 (Homo sapiens, UniProt P08684); conditions: bti-tn-5b1-4; further: in other assays of this panel Not Active means under 50% inhibition at 10 µM
Chain of Cytochrome P450 3A4 (P08684 whole entry): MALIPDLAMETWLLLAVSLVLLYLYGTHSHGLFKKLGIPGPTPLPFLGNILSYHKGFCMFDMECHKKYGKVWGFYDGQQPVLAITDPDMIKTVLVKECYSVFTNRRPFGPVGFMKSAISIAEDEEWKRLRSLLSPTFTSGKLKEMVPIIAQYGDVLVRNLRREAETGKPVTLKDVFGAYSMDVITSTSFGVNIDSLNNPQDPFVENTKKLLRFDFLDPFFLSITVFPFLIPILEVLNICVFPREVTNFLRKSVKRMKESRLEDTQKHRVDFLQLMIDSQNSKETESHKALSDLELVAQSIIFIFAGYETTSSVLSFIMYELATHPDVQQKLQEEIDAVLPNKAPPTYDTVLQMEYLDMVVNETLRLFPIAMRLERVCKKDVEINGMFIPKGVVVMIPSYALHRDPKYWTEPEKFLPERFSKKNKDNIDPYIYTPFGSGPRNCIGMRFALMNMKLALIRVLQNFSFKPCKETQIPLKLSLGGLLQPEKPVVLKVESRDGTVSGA

[5] = target: Sodium-dependent noradrenaline transporter (Homo sapiens, UniProt P23975); experiment: DRUGMATRIX: Norepinephrine Transporter radioligand binding (ligand: [125I] RTI-55); format: cell membranes, MDCK, Membrane; conditions: mdck; Not Active = under 50% inhibition at 10 µM
Chain of Sodium-dependent noradrenaline transporter (P23975 whole entry): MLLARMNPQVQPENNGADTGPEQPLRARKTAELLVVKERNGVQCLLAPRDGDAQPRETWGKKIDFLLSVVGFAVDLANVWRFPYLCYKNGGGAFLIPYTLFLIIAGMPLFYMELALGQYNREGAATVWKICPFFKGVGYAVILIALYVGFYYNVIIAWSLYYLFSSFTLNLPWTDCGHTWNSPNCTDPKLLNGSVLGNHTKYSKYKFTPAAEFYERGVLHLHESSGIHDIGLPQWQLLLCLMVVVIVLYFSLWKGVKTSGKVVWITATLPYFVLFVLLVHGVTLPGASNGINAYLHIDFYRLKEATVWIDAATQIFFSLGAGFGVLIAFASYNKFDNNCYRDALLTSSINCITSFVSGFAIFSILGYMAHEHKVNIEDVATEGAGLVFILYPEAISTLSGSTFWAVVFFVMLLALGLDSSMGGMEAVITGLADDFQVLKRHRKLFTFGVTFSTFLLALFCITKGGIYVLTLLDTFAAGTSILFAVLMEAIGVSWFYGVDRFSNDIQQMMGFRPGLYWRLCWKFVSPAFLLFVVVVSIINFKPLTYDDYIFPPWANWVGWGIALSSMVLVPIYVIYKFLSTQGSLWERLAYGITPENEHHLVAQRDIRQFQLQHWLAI

[6] = target: T2, Cytochrome P450 1A2 (Homo sapiens, UniProt P05177); conditions: bti-tn-5b1-4; further: in other assays of this panel Not Active means under 50% inhibition at 10 µM
T2 sequence (P05177 whole entry): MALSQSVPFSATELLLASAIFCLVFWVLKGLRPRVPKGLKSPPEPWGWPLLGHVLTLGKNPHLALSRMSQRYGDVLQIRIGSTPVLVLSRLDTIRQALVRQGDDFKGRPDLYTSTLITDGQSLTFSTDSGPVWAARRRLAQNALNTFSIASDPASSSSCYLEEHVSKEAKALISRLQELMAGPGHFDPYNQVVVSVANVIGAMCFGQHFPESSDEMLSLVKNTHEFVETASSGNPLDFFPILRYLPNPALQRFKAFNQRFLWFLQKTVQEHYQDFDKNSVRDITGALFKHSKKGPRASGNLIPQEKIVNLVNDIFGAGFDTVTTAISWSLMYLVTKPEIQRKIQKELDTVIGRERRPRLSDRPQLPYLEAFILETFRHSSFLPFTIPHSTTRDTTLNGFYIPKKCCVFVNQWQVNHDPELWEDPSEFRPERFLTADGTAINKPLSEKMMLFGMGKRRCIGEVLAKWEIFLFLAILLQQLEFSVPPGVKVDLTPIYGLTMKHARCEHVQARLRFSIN

[7] = target: T3, Cytochrome P450 2A6 (Homo sapiens, UniProt P11509); conditions: bti-tn-5b1-4; further: in other assays of this panel Not Active means under 50% inhibition at 10 µM
T3 sequence (P11509 whole entry): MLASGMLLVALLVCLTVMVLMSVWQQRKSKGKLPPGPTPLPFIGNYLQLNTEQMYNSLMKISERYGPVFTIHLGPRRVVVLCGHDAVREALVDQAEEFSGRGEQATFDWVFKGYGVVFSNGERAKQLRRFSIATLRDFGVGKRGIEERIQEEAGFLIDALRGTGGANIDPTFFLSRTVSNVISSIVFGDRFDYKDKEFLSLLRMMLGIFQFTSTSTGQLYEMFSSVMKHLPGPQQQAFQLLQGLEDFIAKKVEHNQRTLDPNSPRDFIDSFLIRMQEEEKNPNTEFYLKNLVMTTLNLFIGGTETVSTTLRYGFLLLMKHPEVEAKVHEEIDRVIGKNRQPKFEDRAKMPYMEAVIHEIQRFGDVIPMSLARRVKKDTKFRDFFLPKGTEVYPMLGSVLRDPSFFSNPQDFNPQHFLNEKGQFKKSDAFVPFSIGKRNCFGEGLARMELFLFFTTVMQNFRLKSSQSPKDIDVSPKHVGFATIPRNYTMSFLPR

CC1=C(/C=C/C(C)=C/C=C/C(C)=C/C(=O)O)C(C)(C)CCC1 [TRETINOIN]
Not Active: IC50 [1] | IC50 [2] | Ki [2] | IC50 [3] | Ki [3] | IC50 [4] | Ki [4] | IC50 [5] | IC50 [6] | Ki [6] | IC50 [7] | Ki [7]

O=C(O)c1cc(/N=N/c2ccc(S(=O)(=O)Nc3ccccn3)cc2)ccc1O [SULFASALAZINE]
Not Active: IC50 [1] | IC50 [2] | Ki [2] | IC50 [3] | Ki [3] | IC50 [4] | Ki [4] | IC50 [5] | IC50 [6] | Ki [6] | IC50 [7] | Ki [7]

CS(=O)(=O)c1ccc(C2=C(c3ccccc3)C(=O)OC2)cc1 [ROFECOXIB]
Not Active: IC50 [1] | IC50 [2] | Ki [2] | IC50 [3] | Ki [3] | IC50 [4] | Ki [4] | IC50 [5] | IC50 [6] | Ki [6] | IC50 [7] | Ki [7]

Cc1cnc(NC(=O)C2=C(O)c3ccccc3S(=O)(=O)N2C)s1 [MELOXICAM]
Not Active: IC50 [1] | IC50 [2] | Ki [2] | IC50 [3] | Ki [3] | IC50 [4] | Ki [4] | IC50 [5] | IC50 [6] | Ki [6] | IC50 [7] | Ki [7]

CO[C@@H]1[C@@H](OC)[C@H](C)[C@@](O)(CC(=O)O)O[C@H]1[C@H](C)[C@H]1O[C@@]2(CC[C@@](C)([C@H]3CC[C@@](C)([C@@H]4O[C@@H]([C@H]5O[C@](C)(O)[C@H](C)C[C@@H]5C)C[C@@H]4O[C@@H]4C[C@H](OC)[C@@H](OC)[C@H](C)O4)O3)O2)C[C@H](O)[C@H]1C.N [MADURAMICIN]
Not Active: IC50 [1] | IC50 [2] | Ki [2] | IC50 [3] | Ki [3] | IC50 [4] | Ki [4] | IC50 [5] | IC50 [6] | Ki [6] | IC50 [7] | Ki [7]

C#C[C@]1(O)CC[C@H]2[C@@H]3[C@H](C)CC4=C(CCC(=O)C4)[C@H]3CC[C@@]21C [TIBOLONE]
Not Active: IC50 [1] | IC50 [2] | Ki [2] | IC50 [3] | Ki [3] | IC50 [4] | Ki [4] | IC50 [5] | IC50 [6] | Ki [6] | IC50 [7] | Ki [7]

CCN1CCCC1CNC(=O)c1cc(S(N)(=O)=O)ccc1OC (stereo unspecified) [SULPIRIDE]
Not Active: IC50 [1] | IC50 [2] | Ki [2] | IC50 [3] | Ki [3] | IC50 [4] | Ki [4] | IC50 [5] | IC50 [6] | Ki [6] | IC50 [7] | Ki [7]

CC[C@H](C)C(=O)O[C@H]1CCC=C2C=C[C@H](C)[C@H](CC[C@@H]3C[C@@H](O)CC(=O)O3)[C@H]21 [MEVASTATIN]
Not Active: IC50 [1] | IC50 [2] | Ki [2] | IC50 [3] | Ki [3] | IC50 [4] | Ki [4] | IC50 [5] | IC50 [6] | Ki [6] | IC50 [7] | Ki [7]

C[C@]12CCC(=O)C[C@@H]1CC[C@@H]1[C@@H]2CC[C@]2(C)[C@@H](O)CC[C@@H]12 [STANOLONE]
Not Active: IC50 [1] | IC50 [2] | Ki [2] | IC50 [3] | Ki [3] | IC50 [4] | Ki [4] | IC50 [5] | IC50 [6] | Ki [6] | IC50 [7] | Ki [7]

CC(N)C12CC3CC(CC(C3)C1)C2 (stereo unspecified) [RIMANTADINE]
Not Active: IC50 [1] | IC50 [2] | Ki [2] | IC50 [3] | Ki [3] | IC50 [4] | Ki [4] | IC50 [5] | IC50 [6] | Ki [6] | IC50 [7] | Ki [7]

Cc1cccc(C)c1NC(=O)C(C)N (stereo unspecified) [TOCAINIDE]
Not Active: IC50 [1] | IC50 [2] | Ki [2] | IC50 [3] | Ki [3] | IC50 [4] | Ki [4] | IC50 [5] | IC50 [6] | Ki [6] | IC50 [7] | Ki [7]

CCN(CC)N=O [N-NITROSODIETHYLAMINE]
Not Active: IC50 [1] | IC50 [2] | Ki [2] | IC50 [3] | Ki [3] | IC50 [4] | Ki [4] | IC50 [5] | IC50 [6] | Ki [6] | IC50 [7] | Ki [7]

Cc1ccc(Cl)c(Nc2ccccc2C(=O)O)c1Cl [MECLOFENAMIC ACID]
Not Active: IC50 [1] | IC50 [2] | Ki [2] | IC50 [3] | Ki [3] | IC50 [4] | Ki [4] | IC50 [5] | IC50 [6] | Ki [6] | IC50 [7] | Ki [7]

CO[C@@]12[C@H](COC(N)=O)C3=C(C(=O)C(C)=C(N)C3=O)N1C[C@@H]1N[C@@H]12 [MITOMYCIN]
Not Active: IC50 [1] | IC50 [2] | Ki [2] | IC50 [3] | Ki [3] | IC50 [4] | Ki [4] | IC50 [5] | IC50 [6] | Ki [6] | IC50 [7] | Ki [7]

Cc1[nH]c(=O)c(C#N)cc1-c1ccncc1 [MILRINONE]
Not Active: IC50 [1] | IC50 [2] | Ki [2] | IC50 [3] | Ki [3] | IC50 [4] | Ki [4] | IC50 [5] | IC50 [6] | Ki [6] | IC50 [7] | Ki [7]

O=[As][O-].[Na+] [SODIUM ARSENITE]
Not Active: IC50 [1] | IC50 [2] | Ki [2] | IC50 [3] | Ki [3] | IC50 [4] | Ki [4] | IC50 [5] | IC50 [6] | Ki [6] | IC50 [7] | Ki [7]

COC(=O)Nc1nc2ccc(C(=O)c3ccccc3)cc2[nH]1 [MEBENDAZOLE]
Not Active: IC50 [1] | IC50 [2] | Ki [2] | IC50 [3] | Ki [3] | IC50 [4] | Ki [4] | IC50 [5] | IC50 [6] | Ki [6] | IC50 [7] | Ki [7]

CC(O)C(=O)O (stereo unspecified) [LACTIC ACID]
Not Active: IC50 [1] | IC50 [2] | Ki [2] | IC50 [3] | Ki [3] | IC50 [4] | Ki [4] | IC50 [5] | IC50 [6] | Ki [6] | IC50 [7] | Ki [7]
